Activity calls are given as the source filed them. The rule behind the calls is not given here.
System: bacterial growth, BacTiter-Glo ATP luminescence
Test: antibacterial activity by ATP level – BacTiter-Glo luminescence, cherry-picked samples, counter-screen, dose response (AID 504843);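 note: growth measured after 8 h incubation at 30 °C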

`CO[C@H]1C=CO[C@@]2(C)Oc3c(C)c(O)c4c(O)c(c(C=NN5CCN(C)CC5)c(O)c4c3C2=O)NC(=O)C(C)=CC=C[C@H](C)[C@H](O)[C@@H](C)[C@@H](O)[C@@H](C)[C@H](OC(C)=O)[C@@H]1C` was tested, and the AC50 was > 15 µM (inactive).

— PubChem BioAssay AID504843 (Broad Institute, 2011)
